Seven compounds from patent US10160772B2, “5,6-dihydro-4H-benzo[b]thieno-[2,3-d]azepine derivatives” (PULMOCIDE LIMITED, priority 2014, dated 2018) can be followed below.

Where two headings read alike, the source gives them in different places.

Holding throughout (format): cell-based
One series concerns RSV B Washington strain. The series can be described thus: RSV B-induced CPE in Hep2 cells. The settings on record: human respiratory syncytial virus; for IC50: HEp-2, 144 h, read-out: RSV B CPE IC50. The procedure:
(§1) Biological Testing: Experimental Methods Assessment of RSV Induced CPE in Hep2 Cells
(§2) Hep2 cells were seeded (10^3/well/50 μL) in 384-well plates (Catalogue number 353962, BD Falcon, Oxford, UK) in 5% serum free-DMEM containing 2 mM L-glutamine and 1 mM sodium pyruvate one day before infection. RSV A2 strain (#0709161v, NCPV, Public Health England, Wiltshire) or RSV B Washington strain (VR-1580, ATCC, Manassas, Va. 20108) virus solutions were prepared in serum free-DMEM with 2 mM L-glutamine and 1 mM sodium pyruvate, and then added (50 μL/well) to achieve a final virus concentration of 1 MOI for RSV A and 0.1MOI for RSV B. Simultaneously test compounds (0.5 μL DMSO solution) were added to 100 μL of Hep2 cell culture with virus solution to provide a final DMSO solution of 0.5%. Plates were incubated (37° C./5% CO2) for 5 days for studies using RSV A2 strain or 6 days for those using RSV B strain, and then resazurin sodium salt (5 μL of 0.03% solution; Sigma-Aldrich, Dorset, UK) was added to each well and the plate incubated for a further 6 hr (37° C. and 5% CO2). The fluorescence of each well [545 nm (excitation)/590 nm (emission)] was determined using a multi-scanner (Clariostar: BMG, Buckinghamshire, UK). The percentage inhibition for each well was calculated and the IC50, IC75 and IC90 values were calculated from the concentration-response curve generated for each test compound.

Series [1] is described as follows: Cell viability: resazurin assay in Hep2 cells. As to conditions: human, 5 days incubation. On the procedure: Cell Viability: Resazurin Assay Hep2 cells were seeded in 384-well plates (10^3/well/50 μL; BD Falcon Ref 353962) in FBS DMEM (5%, containing 2 mM L-glutamine and 1 mM sodium pyruvate) one day before experimentation. Serum-free DMEM (50 μL) was added to test wells while for control wells the media was removed and sterile water (100 μL) was added. Test compounds (0.5 μL DMSO solution) were added to give a final DMSO concentration of 0.5%. Hep2 cells were incubated with each test compound for 5 days (37° C./5% CO2 in 5% FBS) and then resazurin stock solution (5 μL; 0.03%) was added to each well and the plate incubated further for a further 6 hrs (37° C./5% CO2). The fluorescence of each well at 545 nm (excitation) and 590 nm (emission) was determined using a multi-scanner (Clariostar: BMG Labtech). The percentage loss of cell viability was calculated for each well relative to vehicle (0.5% DMSO) treatment. Where appropriate, a CC50 value was calculated from the concentration-response curve generated from the concentration-response curve for each test compound.
On the technique in general: The colour change of resazurin is a common sign of viable cells or microbes.

The next series relates to RSV A2 strain. The series can be described thus: RSV A2-induced CPE in Hep2 cells. As to conditions: human respiratory syncytial virus; for IC50: HEp-2, 120 h, read-out: RSV A2 CPE IC50; for inhibition at 0.01 µg/mL: at 0.01 μg/mL (footnote 2). The procedure: as §1, §2
Setting [2] is: Hep2 cells, RSV B Washington 0.1 MOI, 6 days, resazurin.
[3] abbreviates: HEp-2, Hep2 cells, at 1 μg/mL, read-out: RSV B CPE % Inhibition.
Setting [4] is: Hep2 cells, RSV A2 1 MOI, 5 days, resazurin.
Setting [5] is: HEp-2, Hep2 cells, read-out: RSV A2 CPE % Inhibition.
The mark [6] stands for this setting: HEp-2, Hep2 cells, at 0.1 μg/mL, read-out: RSV A2 CPE % Inhibition.

Regarding `Cc1cc(C(=O)Nc2ccc(C(=O)N3CCc4cc(-c5nc6cccc(C#N)c6[nH]5)sc4-c4ccccc43)cc2)c(N2CC3(CCOCC3)C2)nc1C` [Example 25, N-(4-(2-(7-cyano-1H-benzo[d]imidazol-2-yl)-5,6-dihydro-4H-benzo[b]thieno[2,3-d]azepine-6-carbonyl)phenyl)-5,6-dimethyl-2-(7-oxa-2-azaspiro[3.5]nonan-2-yl)nicotinamide], the half-maximal inhibitory concentration (IC50) in the series on RSV B Washington strain (setting [2]) came out at 15.8 nM; with RSV A2 strain (setting [4]) it was 0.69 nM. Also, in the series with RSV B Washington strain (setting [3]), the inhibition at 1 µg/mL stood at 100%. The compound further showed a CC50 at 5 days in series [1] above 13900 nM. Further, the inhibition at 0.01 µg/mL with RSV A2 strain (setting [5]) turned out to be 100%.

With `Cc1cnc(N2CC3(CCOCC3)C2)c(C(=O)Nc2ccc(C(=O)N3CCc4cc(-c5nc6cccc(Cl)c6[nH]5)sc4-c4ccccc43)cc2)c1` [Example 15, N-(4-(2-(7-chloro-1H-benzo[d]imidazol-2-yl)-5,6-dihydro-4H-benzo[b]thieno[2,3-d]azepine-6-carbonyl)phenyl)-5-methyl-2-(7-oxa-2-azaspiro[3.5]nonan-2-yl)nicotinamide], the half-maximal inhibitory concentration (IC50) in the series on RSV B Washington strain (setting [2]) is 83.3 nM; in the series with RSV A2 strain (setting [4]), 0.17 nM. For the same compound, the inhibition at 1 µg/mL in the series with RSV B Washington strain (setting [3]) came to 100%. The 50% cytotoxic concentration (CC50) at 5 days in series [1] is above 14000 nM. For the same compound, the inhibition at 0.1 µg/mL in the series with RSV A2 strain (setting [6]) came out at 85%.

Regarding `CCc1cnc(N2CC3(CCOCC3)C2)c(C(=O)Nc2ccc(C(=O)N3CCc4cc(-c5nc6ccccc6[nH]5)sc4-c4ccccc43)cc2)c1` [Example 4, N-(4-(2-(1H-Benzo[d]imidazol-2-yl)-5,6-dihydro-4H-benzo[b]thieno[2,3-d]azepine-6-carbonyl)phenyl)-5-ethyl-2-(7-oxa-2-azaspiro[3,5]nonan-2-yl)nicotinamide], the IC50 in the series with RSV B Washington strain (setting [2]) came to 13.3 nM; with RSV A2 strain (setting [4]) it was 0.66 nM. In addition, the inhibition at 1 µg/mL with RSV B Washington strain (setting [3]) amounted to 100%. Further, the CC50 at 5 days in series [1] is above 14400 nM. The inhibition at 0.01 µg/mL with RSV A2 strain (setting [5]) turned out to be 86%.

For `Cc1cccc2nc(-c3cc4c(s3)-c3ccccc3N(C(=O)c3ccc(NC(=O)c5cccnc5N5CC6(CCOCC6)C5)cc3)CC4)[nH]c12` [Example 1, N-(4-(2-(7-Methyl-1H-benzo[d]imidazol-2-yl)-5,6-dihydro-4H-benzo[b]thieno[2,3-d]azepine-6-carbonyl)phenyl)-2-(7-oxa-2-azaspiro[3.5]nonan-2-yl)nicotinamide], the concentration for half-maximal inhibition (IC50) in the series with RSV B Washington strain is 84.7 nM; in the series with RSV A2 strain, 0.21 nM. Moreover, in the series with RSV B Washington strain (HEp-2, read-out: RSV B CPE % Inhibition), the inhibition at 1 µg/mL was found to be 100%. Besides, the CC50 at 5 days in series [1] was above 14700 nM. Also, the inhibition at 0.1 µg/mL in the series on RSV A2 strain (HEp-2, read-out: RSV A2 CPE % Inhibition) amounted to 100%.

`Cc1cnc(N2CC3(CCOCC3)C2)c(C(=O)Nc2ccc(C(=O)N3CCc4cc(-c5nc6cccc(C(F)(F)F)c6[nH]5)sc4-c4ccccc43)cc2)c1` [Example 17, 5-methyl-2-(7-oxa-2-azaspiro[3.5]nonan-2-yl)-N-(4-(2-(7-(trifluoromethyl)-1H-benzo[d]imidazol-2-yl)-5,6-dihydro-4H-benzo[b]thieno[2,3-d]azepine-6-carbonyl)phenyl)nicotinamide]: the 50% inhibitory concentration (IC50) with RSV B Washington strain (setting [2]) is 13.2 nM; in the series on RSV A2 strain (setting [4]), 0.11 nM. In the series with RSV B Washington strain (setting [3]), the inhibition at 1 µg/mL was determined as 100%. Also, the CC50 at 5 days in series [1] was above 13400 nM. Also, the inhibition at 0.1 µg/mL in the series on RSV A2 strain (setting [6]) was 100%.

For the compound `Cc1cc(C(=O)Nc2ccc(C(=O)N3CCc4cc(-c5nc6cccc(Cl)c6[nH]5)sc4-c4ccccc43)cc2)c(N2CC3(CCOCC3)C2)nc1C` [Example 23, N-(4-(2-(7-chloro-1H-benzo[d]imidazol-2-yl)-5,6-dihydro-4H-benzo[b]thieno[2,3-d]azepine-6-carbonyl)phenyl)-5,6-dimethyl-2-(7-oxa-2-azaspiro[3.5]nonan-2-yl)nicotinamide], the figures for the half-inhibitory concentration (IC50) in the series with RSV B Washington strain (setting [2]) and with RSV A2 strain (setting [4]) were 103 nM and 0.75 nM, respectively. Also, the inhibition at 1 µg/mL with RSV B Washington strain (setting [3]) was 100%. The compound also gave a CC50 at 5 days in series [1] above 13700 nM. Besides, in the series with RSV A2 strain (setting [6]), the inhibition at 0.1 µg/mL is 100%.

Take `Cc1cc(C(=O)Nc2ccc(C(=O)N3CCc4cc(-c5nc6cccc(C)c6[nH]5)sc4-c4ccccc43)cc2)c(N2CC3(CCOCC3)C2)nc1C` [Example 24]: the half-maximal inhibitory concentration (IC50) turned out to be 27.3 nM in the series with RSV B Washington strain (setting [2]) and 0.85 nM in the series on RSV A2 strain (setting [4]). The inhibition at 1 µg/mL with RSV B Washington strain (setting [3]) amounted to 100%. Further, the CC50 at 5 days in series [1] is above 14100 nM. Further, in the series on RSV A2 strain (setting [6]), the inhibition at 0.1 µg/mL was 100%.

A word on the IC50: it is the midpoint of a concentration-inhibition curve. The term inhibition denotes the relative decrease from the control value, in per cent. As usually defined, the CC50 is the concentration giving 50% cytotoxicity. Read a high CC50 as lower toxicity to the cells.
